According to ChEMBL document CHEMBL4765272, “Design, synthesis and biological evaluation of tyrosine derivatives as Mcl-1 inhibitors” (Eur J Med Chem, 2020):

What was measured:
[1] = Inhibition of 5-FAM-BH3 peptide binding to N-terminal His8-tagged human MCL-1 (209 to 327 residues)/mouse MCL-1 (152 to 189 residues) expressed in Escherichia coli BL21 (DE3) by fluorescence polarization assay
[2] = target: Bcl-2-like protein 1 (Homo sapiens) (UniProt Q07817); assay: Inhibition of 5-FAM-BH3 peptide binding to human N-terminal GST-tagged BCL-XL (1 to 212 residues) expressed in Escherichia coli BL21 (DE3) at 100 uM by fluorescence polarization assay relative to control
Chain of Bcl-2-like protein 1 (Homo sapiens) (Q07817 whole entry, the tested form may be a part, canonical isoform): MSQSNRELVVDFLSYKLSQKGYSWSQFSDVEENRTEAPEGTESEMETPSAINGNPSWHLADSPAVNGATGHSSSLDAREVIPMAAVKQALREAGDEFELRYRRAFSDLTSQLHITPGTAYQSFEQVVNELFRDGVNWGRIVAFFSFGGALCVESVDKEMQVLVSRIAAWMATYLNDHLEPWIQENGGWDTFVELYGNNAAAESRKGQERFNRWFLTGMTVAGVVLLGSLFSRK

[3] = Inhibition of 5-FAM-BH3 peptide binding to human N-terminal GST-tagged BCL-2 (1 to 34 residues)/BCL-XL (29 to 44 residues)/BCL-2 isoform 2 (92 to 207 residues) expressed in Escherichia coli BL21 (DE3) by fluorescence polarization assay
[4] = Antiproliferative activity against human KM3 cells incubated for 72 hrs by MTT assay; assay type: functional, cell-based; settings: KM3, 72 h
HepG2 [5] = assay: Antiproliferative activity against human HepG2 cells incubated for 72 hrs by MTT assay; assay type: functional, cell-based; settings: HepG2, 72 h
RPMI-8226 = assay: Antiproliferative activity against human RPMI-8226 cells incubated for 72 hrs by MTT assay; assay type: functional, cell-based; settings: RPMI-8226, 72 h
Jurkat = assay: Antiproliferative activity against human Jurkat cells incubated for 72 hrs by MTT assay; assay type: functional, cell-based
MOLT-4 = assay: Antiproliferative activity against human MOLT-4 cells incubated for 72 hrs by MTT assay; assay type: functional, cell-based; settings: MOLT-4, 72 h
PC-3 = assay: Antiproliferative activity against human PC-3 cells incubated for 72 hrs by MTT assay; assay type: functional, cell-based; settings: PC-3, 72 h
NCI-H1299 = assay: Antiproliferative activity against human NCI-H1299 cells incubated for 72 hrs by MTT assay; assay type: functional, cell-based; settings: NCI-H1299, 72 h
Homo sapiens = species: Homo sapiens; assay: Inhibition of 5-FAM-BH3 peptide binding to human N-terminal GST-tagged BCL-2 (1 to 34 residues)/BCL-XL (29 to 44 residues)/BCL-2 isoform 2 (92 to 207 residues) expressed in Escherichia coli BL21 (DE3) at 100 uM by fluorescence polarization assay relative to control
KM3 = assay: Induction of apoptosis in human KM3 cells measured after 48 hrs by Annexin V-FITC/propidium iodide staining based flow cytometry; assay type: functional, cell-based
HepG2 [6] = assay: Induction of apoptosis in human HepG2 cells measured after 48 hrs by Annexin V-FITC/propidium iodide staining based flow cytometry; assay type: functional, cell-based
[7] = Induction of apoptosis in human KM3 cells assessed as viable cells at 10 uM measured after 48 hrs by Annexin V-FITC/propidium iodide staining based flow cytometry (reference value: 96.24%); assay type: functional; settings: read-out: Activity
[8] = Induction of apoptosis in human KM3 cells assessed as early apoptotic cells at 10 uM measured after 48 hrs by Annexin V-FITC/propidium iodide staining based flow cytometry (reference value: 2.18%); assay type: functional
[9] = Induction of apoptosis in human KM3 cells assessed as late apoptotic cells at 10 uM measured after 48 hrs by Annexin V-FITC/propidium iodide staining based flow cytometry (reference value: 1.15%); assay type: functional
[10] = Induction of apoptosis in human KM3 cells assessed as necrotic cells at 10 uM measured after 48 hrs by Annexin V-FITC/propidium iodide staining based flow cytometry (reference value: 0.42%); assay type: functional
[11] = Induction of apoptosis in human KM3 cells assessed as viable cells at 20 uM measured after 48 hrs by Annexin V-FITC/propidium iodide staining based flow cytometry (reference value: 96.24%); assay type: functional; settings: read-out: Activity
[12] = Induction of apoptosis in human KM3 cells assessed as early apoptotic cells at 20 uM measured after 48 hrs by Annexin V-FITC/propidium iodide staining based flow cytometry (reference value: 2.18%); assay type: functional
[13] = Induction of apoptosis in human KM3 cells assessed as late apoptotic cells at 20 uM measured after 48 hrs by Annexin V-FITC/propidium iodide staining based flow cytometry (reference value: 1.15%); assay type: functional
[14] = Induction of apoptosis in human KM3 cells assessed as necrotic cells at 20 uM measured after 48 hrs by Annexin V-FITC/propidium iodide staining based flow cytometry (reference value: 0.42%); assay type: functional
HepG2 [15] = assay: Induction of apoptosis in human HepG2 cells assessed as viable cells at 10 uM measured after 48 hrs by Annexin V-FITC/propidium iodide staining based flow cytometry (reference value: 96.84%); assay type: functional; settings: read-out: Activity
HepG2 [16] = assay: Induction of apoptosis in human HepG2 cells assessed as early apoptotic cells at 10 uM measured after 48 hrs by Annexin V-FITC/propidium iodide staining based flow cytometry (reference value: 0.71%); assay type: functional
HepG2 [17] = assay: Induction of apoptosis in human HepG2 cells assessed as late apoptotic cells at 10 uM measured after 48 hrs by Annexin V-FITC/propidium iodide staining based flow cytometry (reference value: 1.93%); assay type: functional
HepG2 [18] = assay: Induction of apoptosis in human HepG2 cells assessed as necrotic cells at 10 uM measured after 48 hrs by Annexin V-FITC/propidium iodide staining based flow cytometry (reference value: 0.52%); assay type: functional
HepG2 [19] = assay: Induction of apoptosis in human HepG2 cells assessed as viable cells at 20 uM measured after 48 hrs by Annexin V-FITC/propidium iodide staining based flow cytometry (reference value: 96.84%); assay type: functional; settings: read-out: Activity
HepG2 [20] = assay: Induction of apoptosis in human HepG2 cells assessed as early apoptotic cells at 20 uM measured after 48 hrs by Annexin V-FITC/propidium iodide staining based flow cytometry (reference value: 0.71%); assay type: functional
HepG2 [21] = assay: Induction of apoptosis in human HepG2 cells assessed as late apoptotic cells at 20 uM measured after 48 hrs by Annexin V-FITC/propidium iodide staining based flow cytometry (reference value: 1.93%); assay type: functional
HepG2 [22] = assay: Induction of apoptosis in human HepG2 cells assessed as necrotic cells at 20 uM measured after 48 hrs by Annexin V-FITC/propidium iodide staining based flow cytometry (reference value: 0.52%); assay type: functional

Cc1ccc(CC(=O)N[C@@H](Cc2ccc(OCCOc3cccc4ccccc34)cc2)C(=O)NS(=O)(=O)c2ccc(Cl)c([N+](=O)[O-])c2)cc1
Ki [1]: 590 nM

Cc1ccc(CC(=O)N[C@@H](Cc2ccc(OCCOc3ccccc3)cc2)C(=O)NS(=O)(=O)c2ccc(Cl)c([N+](=O)[O-])c2)cc1
Ki [1]: 8500 nM

CC(C)(C)OC(=O)N[C@@H](Cc1ccc(OCCOc2ccccc2)cc1)C(=O)NS(=O)(=O)c1ccc(Cl)c([N+](=O)[O-])c1
Ki [1]: > 15000 nM

Cc1ccc(CC(=O)N[C@@H](Cc2cc(I)c(OCCOc3cccc4ccccc34)c(I)c2)C(=O)NS(=O)(=O)c2ccc(Cl)c([N+](=O)[O-])c2)cc1
Ki [1]: 570 nM

Cc1cc(OCCCOc2ccc(C[C@H](NC(=O)OC(C)(C)C)C(=O)NS(=O)(=O)c3ccc(Cl)c([N+](=O)[O-])c3)cc2)cc(C)c1Cl
Ki [1]: 660 nM

Cc1cc(OCCCCOc2ccc(C[C@H](NC(=O)OC(C)(C)C)C(=O)NS(=O)(=O)c3ccc(NCCCc4ccccc4)c([N+](=O)[O-])c3)cc2)cc(C)c1Cl
Ki [1]: 260 nM | inhibition [2]: > 50% | Ki [3]: 1200 nM | IC50 [4]: 9700 nM | IC50 (HepG2 [5]): 11000 nM | IC50 (RPMI-8226): 8610 nM | IC50 (Jurkat): 21200 nM | IC50 (MOLT-4): 19700 nM | IC50 (PC-3): 9710 nM | IC50 (NCI-H1299): 22900 nM

CC(C)(C)OC(=O)N[C@@H](Cc1ccc(OCCOc2ccc(Cl)cc2)cc1)C(=O)NS(=O)(=O)c1ccc(Cl)c([N+](=O)[O-])c1
Ki [1]: 4800 nM

CC(C)(C)OC(=O)N[C@@H](Cc1ccc(OCCOc2cccc3ccccc23)cc1)C(=O)NS(=O)(=O)c1ccc(NCCCc2ccccc2)c([N+](=O)[O-])c1
Ki [1]: 1100 nM

CC(C)(C)OC(=O)N[C@@H](Cc1cc(Cl)c(OCCOc2cccc3ccccc23)c(Cl)c1)C(=O)NS(=O)(=O)c1ccc(Cl)c([N+](=O)[O-])c1
Ki [1]: 1000 nM

Cc1ccc(CC(=O)N[C@@H](Cc2cc(Br)c(OCCOc3cccc4ccccc34)c(Br)c2)C(=O)NS(=O)(=O)c2ccc(Cl)c([N+](=O)[O-])c2)cc1
Ki [1]: 970 nM

CC(C)(C)OC(=O)N[C@@H](Cc1ccc(OCCOc2cccc3ccccc23)cc1)C(=O)NS(=O)(=O)c1ccc(Cl)c([N+](=O)[O-])c1
Ki [1]: 5000 nM

Cc1ccc(CC(=O)N[C@@H](Cc2ccc(OCCOc3cccc4ccccc34)cc2)C(=O)NS(=O)(=O)c2ccc(NCCCc3ccccc3)c([N+](=O)[O-])c2)cc1
Ki [1]: 440 nM

Cc1ccc(CC(=O)N[C@@H](Cc2ccc(OCCOc3cc(C)c(Cl)c(C)c3)cc2)C(=O)NS(=O)(=O)c2ccc(Cl)c([N+](=O)[O-])c2)cc1
Ki [1]: 480 nM

Cc1cc(OCCOc2ccc(C[C@H](NC(=O)OC(C)(C)C)C(=O)NS(=O)(=O)c3ccc(NCCOc4ccccc4)c([N+](=O)[O-])c3)cc2)cc(C)c1Cl
Ki [1]: 670 nM

Cc1ccc(CC(=O)N[C@@H](Cc2ccc(OCCOc3cccc4ccccc34)cc2)C(=O)NS(=O)(=O)c2ccc(NCCc3ccccc3)c([N+](=O)[O-])c2)cc1
Ki [1]: 470 nM

Cc1cc(OCCCCOc2ccc(C[C@H](NC(=O)OC(C)(C)C)C(=O)NS(=O)(=O)c3ccc(Cl)c([N+](=O)[O-])c3)cc2)cc(C)c1Cl
Ki [1]: 710 nM

Cc1ccc(CC(=O)N[C@@H](Cc2cc(I)c(OCCOc3cccc4ccccc34)c(I)c2)C(=O)NS(=O)(=O)c2ccc(NCCCc3ccccc3)c([N+](=O)[O-])c2)cc1
Ki [1]: 210 nM | inhibition [2]: > 50% | inhibition (Homo sapiens): > 50% | IC50 [4]: 8260 nM | IC50 (HepG2 [5]): 12700 nM | IC50 (RPMI-8226): 7350 nM | IC50 (Jurkat): 17200 nM | IC50 (MOLT-4): 18000 nM | IC50 (PC-3): 18200 nM | IC50 (NCI-H1299): 21500 nM

Cc1ccc(CC(=O)N[C@@H](Cc2cc(Cl)c(OCCOc3cccc4ccccc34)c(Cl)c2)C(=O)NS(=O)(=O)c2ccc(Cl)c([N+](=O)[O-])c2)cc1
Ki [1]: 720 nM

O=C(Cc1ccc(Cl)cc1)N[C@@H](Cc1ccc(OCCOc2cccc3ccccc23)cc1)C(=O)NS(=O)(=O)c1ccc(Cl)c([N+](=O)[O-])c1
Ki [1]: 510 nM

CC(C)(C)OC(=O)N[C@@H](Cc1cc(I)c(OCCOc2cccc3ccccc23)c(I)c1)C(=O)NS(=O)(=O)c1ccc(Cl)c([N+](=O)[O-])c1
Ki [1]: 1400 nM

Cc1cc(OCCOc2ccc(C[C@H](NC(=O)OC(C)(C)C)C(=O)NS(=O)(=O)c3ccc(NCCCc4ccccc4)c([N+](=O)[O-])c3)cc2)cc(C)c1Cl
Ki [1]: 450 nM

Cc1cc(OCCOc2ccc(C[C@H](NC(=O)c3ccccc3)C(=O)NS(=O)(=O)c3ccc(NCCCc4ccccc4)c([N+](=O)[O-])c3)cc2)cc(C)c1Cl
Ki [1]: 270 nM | inhibition [2]: > 50% | Ki [3]: 1700 nM | IC50 [4]: 7460 nM | IC50 (HepG2 [5]): 11700 nM | IC50 (RPMI-8226): 7610 nM | IC50 (Jurkat): 13000 nM | IC50 (MOLT-4): 13900 nM | IC50 (PC-3): 14300 nM | IC50 (NCI-H1299): 12900 nM | Activity (KM3): Dose-dependent effect | Activity (HepG2 [6]): Dose-dependent effect | viability at 10 µM [7]: 83% | Activity [8]: 10.52% | Activity [9]: 5.52% | Activity [10]: 1.01% | viability at 20 µM [11]: 11.9% | Activity [12]: 17.71% | Activity [13]: 68.68% | Activity [14]: 1.73% | viability at 10 µM (HepG2 [15]): 82.3% | Activity (HepG2 [16]): 0.87% | Activity (HepG2 [17]): 11.72% | Activity (HepG2 [18]): 5.13% | viability at 20 µM (HepG2 [19]): 18.5% | Activity (HepG2 [20]): 2.25% | Activity (HepG2 [21]): 75.13% | Activity (HepG2 [22]): 4.13%

Cc1ccc(C(=O)N[C@@H](Cc2ccc(OCCOc3cccc4ccccc34)cc2)C(=O)NS(=O)(=O)c2ccc(Cl)c([N+](=O)[O-])c2)cc1
Ki [1]: 710 nM

CC(C)(C)OC(=O)N[C@@H](Cc1ccc(OCCOc2cccc3ccccc23)cc1)C(=O)NS(=O)(=O)c1ccc(NCCc2ccccc2)c([N+](=O)[O-])c1
Ki [1]: 420 nM

Cc1cc(OCCOc2ccc(C[C@H](NC(=O)OC(C)(C)C)C(=O)NS(=O)(=O)c3ccc(Cl)c([N+](=O)[O-])c3)cc2)cc(C)c1Cl
Ki [1]: 700 nM

Cc1ccc(CC(=O)N[C@@H](Cc2ccc(OCCOc3ccc(Cl)cc3)cc2)C(=O)NS(=O)(=O)c2ccc(Cl)c([N+](=O)[O-])c2)cc1
Ki [1]: 1600 nM

Cc1ccc(CC(=O)N[C@@H](Cc2ccc(OCCOc3cccc4ccccc34)cc2)C(=O)NS(=O)(=O)c2ccc(NCc3ccccc3)c([N+](=O)[O-])c2)cc1
Ki [1]: 760 nM

COc1ccc(CC(=O)N[C@@H](Cc2ccc(OCCOc3cccc4ccccc34)cc2)C(=O)NS(=O)(=O)c2ccc(NCCCc3ccccc3)c([N+](=O)[O-])c2)cc1
Ki [1]: 500 nM

Cc1ccc(CC(=O)N[C@@H](Cc2ccc(OCCOc3cc(C)c(Cl)c(C)c3)cc2)C(=O)NS(=O)(=O)c2ccc(NCCOc3ccccc3)c([N+](=O)[O-])c2)cc1
Ki [1]: 340 nM
